Assay results: PMC7997574, “Lead Optimization of Benzoxazolone Carboxamides as Orally Bioavailable and CNS Penetrant Acid Ceramidase Inhibitors” (Journal of Medicinal Chemistry, 2020)
≈ marks a conversion by molar mass, not a printed value. Structures can show the parent of a compound that is named as a salt. Where two headings read alike, the source gives them in different places.

Key:
[1] = In vitro microsomal stability study; format: in vitro ADME; details: mouse liver microsomes
Description: Freshly prepared 10 mM MeCN stock solution of test compound was preincubated at 37 °C for 15 min with mouse liver microsomes added in 0.1 M Tris HCl buffer (pH 7.4). The final concentration was 4.6 μM. After preincubation, the cofactors (NADPH, G6P, G6PDH, and MgCl2 predissolved in 0.1 M Tris HCl) were added to the incubation mixture, and the incubation was continued at 37 °C for 1 h. At each time point (0, 5, 15, 30, and 60 min), 30 μL of incubation mixture was diluted with 200 μL of cold MeCN spiked with 200 nM internal standard followed by centrifugation at 3300 × g for 15 min. The supernatant was further diluted with H2O (1:1) for analysis. The concentration of the test compound was quantified by LC/MS/MS on a Waters ACQUITY UPLC/MS TQD system consisting of a TQD MS equipped with an ESI interface. The analyses were run on an ACQUITY UPLC BEH C18 (50 × 2.1 mm ID, particle size 1.7 μm) with a VanGuard BEH C18 precolumn (5 × 2.1 mm ID, particle size 1.7 μm) at 40 °C. For each compound, the appropriate mobile phase was chosen. ESI was applied in positive mode. The percentage of test compound remaining at each time point relative to t = 0 was calculated. t1/2 was determined by a one-phase decay equation using a nonlinear regression of compound concentration vs time. Values are the mean of at least two independent experiments performed in two technical replicates.

AC = target: T1, AC (Homo sapiens, UniProt Q13510); experiment: Fluorogenic hAC assay on hAC-enriched lysate of HEK293 cells; format: biochemical; parameters: expressed in transfected cells
T1 sequence (Q13510 22-395): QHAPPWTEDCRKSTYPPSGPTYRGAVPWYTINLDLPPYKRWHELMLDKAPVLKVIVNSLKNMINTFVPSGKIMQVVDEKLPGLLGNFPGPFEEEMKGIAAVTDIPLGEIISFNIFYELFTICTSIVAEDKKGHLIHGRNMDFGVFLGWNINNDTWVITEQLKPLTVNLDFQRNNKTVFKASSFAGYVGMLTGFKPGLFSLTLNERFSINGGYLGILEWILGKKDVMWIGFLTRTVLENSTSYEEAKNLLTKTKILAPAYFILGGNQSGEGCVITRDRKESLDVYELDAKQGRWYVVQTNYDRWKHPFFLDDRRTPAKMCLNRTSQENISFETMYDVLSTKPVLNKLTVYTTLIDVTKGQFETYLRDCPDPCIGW
Description: HEK293 cells stably expressing hAC were grown in Dulbecco’s modified Eagle medium (DMEM) containing 10% FBS, 1% glutamine, 1 mM sodium pyruvate, and 500 μg mL^–1 G418. Cells were harvested, and pellets were stored at −80 °C until lysosomal-enriched lysate preparation. Cells were suspended in 20 mM Tris HCl (pH 7.5) with 0.32 M sucrose, sonicated, and centrifuged at 800 × g for 30 min at 4 °C. Supernatants were then centrifuged at 12000 × g for 30 min at 4 °C. Pellets were resuspended in PBS (pH 7.4) and subjected to three freeze–thaw cycles at −80 °C. The suspension was finally centrifuged at 105000 × g for 1 h at 4 °C, and protein concentration was measured in the supernatant with the bicinchoninic acid based protein assay. This hAC-enriched preparation allowed us to further optimize the enzymatic assay and to use small amounts of lysate (2 μg per well) at a 5 μM substrate (Rbm14–12) around its KM (KM = 5.0 μM).
The assay was performed in Optiplate 96-well black plates, with each reaction well containing a mixture of 25 mM NaOAc buffer (pH 4.5) and a fixed amount of protein (2 μg) in a volume of 85 μL. After 10 min of preincubation with test compounds (diluted 20× from DMSO stock solutions at different concentrations), the fluorogenic probe was added (diluted 40× from EtOH stock solution, final concentration 5 μM). After 3 h of incubation at 37 °C, reactions were stopped with 50 μL of MeOH and 100 μL of a 2.5 mg mL^–1 NaIO4 fresh solution in 100 mM glycine/NaOH buffer (pH 10.6). The plates were further incubated for 2 h at 37 °C in the dark, and fluorescence intensities were measured at excitation/emission wavelengths of 355/460 nm. Negative control samples consisted of the same incubation mixture in the absence of protein-enriched extracts. Data were plotted as a function of compound concentrations. IC50 values were calculated by nonlinear regression analysis using GraphPad Prism 5 (GraphPad Software Inc., CA, USA) applying a standard slope curve fitting. The reported IC50 values are the mean of at least three independent experiments performed in three technical replicates.

[2] = In vitro plasma stability study; format: in vitro ADME; details: mouse plasma; read-out: m-plasma t1/2
Description: Freshly prepared 10 mM MeCN stock solution of test compound was diluted 50-fold with DMSO/H2O (1:1) and incubated at 37 °C for 2 h with mouse plasma added in 5% DMSO (preheated at 37 °C for 10 min). The final concentration was 2 μM. At each time point (0, 5, 15, 30, 60, and 120 min), 50 μL of incubation mixture was diluted with 200 μL of cold MeCN spiked with 200 nM internal standard followed by centrifugation at 3300 × g for 20 min. The supernatant was further diluted with H2O (1:1) for analysis. The concentration of test compound was quantified by LC/MS/MS on a Waters ACQUITY UPLC/MS TQD system consisting of a TQD MS equipped with an ESI interface. The analyses were run on an ACQUITY UPLC BEH C18 (50 × 2.1 mm ID, particle size 1.7 μm) with a VanGuard BEH C18 precolumn (5 × 2.1 mm ID, particle size 1.7 μm) at 40 °C. For each compound, the appropriate mobile phase was chosen. ESI was applied in positive mode. The response factors, calculated on the basis of the internal standard peak area, were plotted over time. When possible, response vs time profiles were fitted with Prism (GraphPad Software, Inc., USA) to estimate compound t1/2 in plasma. Values are the mean of at least two independent experiments performed in two technical replicates.

[3] = Aqueous kinetic solubility assay; format: physicochemical; details: PBS, pH 7.4
Description: The aqueous kinetic solubility was determined from a 10 mM MeCN stock solution of test compound in Phosphate-Buffered Saline (PBS) at pH 7.4. The study was performed by incubation of an aliquot of 10 mM MeCN stock solution in PBS (pH 7.4) at a target concentration of 250 μM. The incubation was carried out under shaking at 25 °C for 1 h followed by centrifugation at 21100 × g for 30 min. The supernatant was analyzed by UPLC/MS for the quantification of the dissolved compound (in μM) by UV at a specific wavelength (215 nm). […] The UPLC/MS analyses were performed on a Waters ACQUITY UPLC/MS system consisting of a single quadrupole detector (SQD) Mass Spectrometer (MS) equipped with an Electrospray Ionization (ESI) interface and a Photodiode Array Detector (PDA). The PDA range was 210–400 nm. ESI in positive mode was used in the mass scan range of 100–650 Da. The analyses were run on an ACQUITY UPLC BEH C18 column (50 × 2.1 mm ID, particle size 1.7 μm) with a VanGuard BEH C18 precolumn (5 × 2.1 mm ID, particle size 1.7 μm), using 10 mM NH4OAc in H2O at pH 5 adjusted with AcOH (A) and 10 mM NH4OAc in MeCN/H2O (95:5) at pH 5 (B) as the mobile phase. Values are reported as mean values of ≥2 experiments performed.

[4] = hAC expressed in HEK-293 cells, read-out: hAC IC50 (μM)±SD
[5] = supplementary csv, read-out: hAC, IC50

SMILES	IC50 (AC; [4]) [µM]	IC50 (AC; [5]) [µM]	further results
CC(C)CNC(=O)n1c(=O)oc2cc(C3CCCCN3C)ccc21 (racemic) [compound 26, (±)-N-Isobutyl-6-(1-methyl-2-piperidyl)-2-oxo-1,3-benzoxazole-3-carboxamide]	1.01 ± 0.432	1.19 ± 0.435	half-life at 1 h, 4.6 µM ([1]; pH 7.4, read-out: m-LM t1/2): 15 min; half-life at 2 µM [2]: 30 min; solubility at 1 h [3]: 190 µM (≈ 63 µg/mL)
CC(C)CNC(=O)n1c(=O)oc2cc(C3CCCN(C)C3)ccc21 (racemic) [compound 27, (±)-N-Isobutyl-6-(1-methyl-3-piperidyl)-2-oxo-1,3-benzoxazole-3-carboxamide]	1.75 ± 0.705	1.62 ± 0.649	m-LM [% at 60 min] ([1]; % remaining at 60 min): 70%; half-life at 4.6 μM ([1]; pH 7.4, read-out: m-LM t1/2): > 60 min; half-life at 2 µM [2]: 50 min; solubility at 1 h [3]: > 250 µM
O=C(NCCOCc1ccccc1)n1c(=O)oc2cc(-c3ccc(F)cc3)ccc21 [2d, N-(2-Benzyloxyethyl)-6-(4-fluorophenyl)-2-oxo-1,3-benzoxazole-3-carboxamide]		4.7 ± 6.04	
CCCCCNC(=O)n1c(=O)oc2cc(-c3ccc(F)cc3)ccc21 [2e, 6-(4-Fluorophenyl)-2-oxo-N-pentyl-1,3-benzoxazole-3-carboxamide]			IC50 (AC; read-out: hAC IC50): 0.06 µM; solubility at 1 h [3]: < 1 µM
CCOCCNC(=O)n1c(=O)oc2cc(-c3ccc(F)cc3)ccc21 [2f, N-(2-Ethoxyethyl)-6-(4-fluorophenyl)-2-oxo-1,3-benzoxazole-3-carboxamide]		2.3	
COCCCNC(=O)n1c(=O)oc2cc(-c3ccc(F)cc3)ccc21 [2g, 6-(4-Fluorophenyl)-N-(3-methoxypropyl)-2-oxo-1,3-benzoxazole-3-carboxamide]		2.6 ± 0.176	
O=C1C(=O)N(C(=O)NCCCCc2ccccc2)c2ccccc21 [8c, 2,3-Dioxo-N-(4-phenylbutyl)indoline-1-carboxamide]	> 10		
O=C1Cc2ccccc2N1C(=O)NCCCCc1ccccc1 [8d, 2-Oxo-N-(4-phenylbutyl)indoline-1-carboxamide]	> 10		
CN1CCc2oc(=O)n(C(=O)NCCCCc3ccccc3)c2C1 [12c, 5-Methyl-2-oxo-N-(4-phenylbutyl)-6,7-dihydro-4H-oxazolo[4,5-c]pyridine-3-carboxamide Hydrochloride]		0.516 ± 0.165	
O=C(NCCCCc1ccccc1)n1c2c(oc1=O)CCN(Cc1ccccc1)C2 [12d, 5-Benzyl-2-oxo-N-(4-phenylbutyl)-6,7-dihydro-4H-oxazolo[4,5-c]pyridine-3-carboxamide]		0.436 ± 0.073	
CC(=O)N1CCc2oc(=O)n(C(=O)NCCCCc3ccccc3)c2C1 [12e, 5-Acetyl-2-oxo-N-(4-phenylbutyl)-6,7-dihydro-4H-oxazolo[4,5-c]pyridine-3-carboxamide]		0.293 ± 0.107	
CN1CCC(c2ccc3[nH]c(=O)oc3c2)CC1 [21g, 6-(1-Methyl-4-piperidyl)-3H-1,3-benzoxazol-2-one]			inhibition of hAC (AC; tested at 1 and 10 μM): not able to inhibit hAC
O=C(NCCCCc1ccccc1)n1c(=O)oc2cc(C3CCCCC3)ccc21 [22a, 6-Cyclohexyl-2-oxo-N-(4-phenylbutyl)-1,3-benzoxazole-3-carboxamide]	0.089 ± 0.054		
O=C(NCCCCc1ccccc1)n1c(=O)oc2cc(C3CCOCC3)ccc21 [22b, 2-Oxo-N-(4-phenylbutyl)-6-tetrahydropyran-4-yl-1,3-benzoxazole-3-carboxamide]	0.068 ± 0.022		
CCOCCNC(=O)n1c(=O)oc2cc(C3CCN(C)CC3)ccc21 [22l, N-(2-Ethoxyethyl)-6-(1-methyl-4-piperidyl)-2-oxo-1,3-benzoxazole-3-carboxamide]	1.05 ± 0.312		
CCC(C)NC(=O)n1c(=O)oc2cc(C3CCN(C)CC3)ccc21 (stereo not shown) [22n, 6-(1-Methyl-4-piperidyl)-2-oxo-N-sec-butyl-1,3-benzoxazole-3-carboxamide]	2.1		
O=C(NCCCCc1ccccc1)n1c(=O)oc2cc(N3CCCCC3)ccc21 [23a, 2-Oxo-N-(4-phenylbutyl)-6-piperidin-1-ium-1-yl-1,3-benzoxazole-3-carboxamide Hydrochloride]	0.08 ± 0.017		
O=C(NCCCCc1ccccc1)n1c(=O)oc2cc(N3CCOCC3)ccc21 [23b, 6-Morpholino-2-oxo-N-(4-phenylbutyl)-1,3-benzoxazole-3-carboxamide]	0.192 ± 0.087		
O=C(NCCCCc1ccccc1)n1c(=O)oc2cc(N3CCS(=O)(=O)CC3)ccc21 [23c, 6-(1,1-Dioxo-1,4-thiazinan-4-yl)-2-oxo-N-(4-phenylbutyl)-1,3-benzoxazole-3-carboxamide]	0.16 ± 0.014		
CC(C)N1CCN(c2ccc3c(c2)oc(=O)n3C(=O)NCCCCc2ccccc2)CC1 [23h, 6-(4-Isopropylpiperazin-1-yl)-2-oxo-N-(4-phenylbutyl)-1,3-benzoxazole-3-carboxamide]	0.211 ± 0.065		
CC(C)CN1CCN(c2ccc3c(c2)oc(=O)n3C(=O)NCCCCc2ccccc2)CC1 [23i, 6-(4-Isobutylpiperazin-1-Yl)-2-oxo-N-(4-phenylbutyl)-1,3-benzoxazole-3-carboxamide]	0.127 ± 0.037		
